In one assay the test system is TNFα. Description: Cot Monocyte TNFα Cell Based Assay.
Another assay has as its target Human Cot (Homo sapiens (Human), UniProt P41279). As to the kind of experiment: High Throughput Cot Biochemical Assay.
Where [1] appears, read: Homo sapiens, Monocyte, read-out: EC50 TNF, LPS-stimulated human monocytes, TNFα.
Where [2] appears, read: IC50 HTRF, Cot HTRF (TR-FRET) biochemical assay.
Setting [3] is: Homo sapiens, Monocyte, read-out: EC50 TNF, LPS-stimulated human monocytes, TNFα TR-FRET.
[4] abbreviates: IC50 HTRF, Cot HTRF (TR-FRET KinEASE) biochemical assay, 400 μM ATP.

Usually EC50 stands for the concentration that produces a half-maximal response. The term IC50 denotes the concentration at which inhibition is half-maximal.

Each structure is given as a SMILES string. Read-outs that look alike come from different tables or passages of the source.

Chain of Human Cot (P41279 30-397): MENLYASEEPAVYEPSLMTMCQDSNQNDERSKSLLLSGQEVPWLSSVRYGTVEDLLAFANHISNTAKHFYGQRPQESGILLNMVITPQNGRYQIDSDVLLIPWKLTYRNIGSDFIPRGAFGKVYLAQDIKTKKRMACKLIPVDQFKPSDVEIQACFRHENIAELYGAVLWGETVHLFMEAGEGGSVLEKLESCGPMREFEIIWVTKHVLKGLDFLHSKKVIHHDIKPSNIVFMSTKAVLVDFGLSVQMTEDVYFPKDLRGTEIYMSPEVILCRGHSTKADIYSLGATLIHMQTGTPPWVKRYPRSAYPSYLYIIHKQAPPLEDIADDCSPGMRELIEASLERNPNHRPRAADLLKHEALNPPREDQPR

Turning to `Cc1nc(F)ccc1[C@H](Nc1cc(Cl)c2ncc(C#N)c(NCC(C)(C)C(F)(F)F)c2c1)c1cn(C2(C(F)F)CC2)nn1` [Example 727, (S)-8-chloro-6-(((1-(1-(difluoromethyl)cyclopropyl)-1H-1,2,3-triazol-4-yl)(6-fluoro-2-methylpyridin-3-yl)methyl)amino)-4-((3,3,3-trifluoro-2,2-dimethylpropyl)amino)quinoline-3-carbonitrile], the EC50 in the assay with TNFα (setting [1]) was determined as 48 nM. The molecule further came in with a half-inhibitory concentration (IC50) against Human Cot (setting [2]) of 3 nM.

Regarding `[2H]c1c([C@@H](Nc2cc(Cl)c3ncc(C#N)c(NC([2H])([2H])C(C)(C)C)c3c2)c2ccc(F)nc2C)nnn1C1(C(F)F)CC1` [Example 973, (S)-8-chloro-6-(((1-(1-(difluoromethyl)cyclopropyl)-1H-1,2,3-triazol-4-yl-5-d)(6-fluoro-2-methylpyridin-3-yl)methyl)amino)-4-((2,2-dimethylpropyl-1,1-d2)amino)quinoline-3-carbonitrile], in the assay on TNFα (setting [3]), the EC50 was 34 nM. Besides, at Human Cot (setting [4]), the IC50 amounted to 3 nM.

In the case of `Cn1ccc2c([C@H](Nc3cc(Cl)c4ncc(C#N)c(NCC5(C(F)(F)F)CCC5)c4c3)c3cn(C4(C(F)F)CC4)nn3)cccc2c1=O` [Example 730, (S)-8-chloro-6-(((1-(1-(difluoromethyl)cyclopropyl)-1H-1,2,3-triazol-4-yl)(2-methyl-1-oxo-1,2-dihydroisoquinolin-5-yl)methyl)amino)-4-(((1-(trifluoromethyl)cyclobutyl)methyl)-amino)quinoline-3-carbonitrile], the concentration giving a half-maximal response (EC50) in the assay with TNFα (setting [1]) came to 89 nM. On Human Cot (setting [2]), this molecule yielded an IC50 of 10 nM.

Consider `Cc1nc(F)ccc1[C@H](Nc1cc(F)c2ncc(C#N)c(NCC(C)(C)C)c2c1)c1cn(C2(C(N)=O)CC2)nn1` [Example 486, (S)-1-(4-(((3-cyano-8-fluoro-4-(neopentyl-amino)quinolin-6-yl)amino)(6-fluoro-2-methylpyridin-3-yl)methyl)-1H-1,2,3-triazol-1-yl)cyclopropane-1-carboxamide], for which the concentration for a half-maximal effect (EC50) with TNFα (setting [1]) amounted to 991 nM. The IC50 at Human Cot (setting [2]) stood at 3 nM.

Consider `N#CCCC(Nc1c(C#N)cnc2c(Cl)cc(N[C@H](c3cn(C4CC4)nn3)c3csc4c3CCN(C3COC3)C4)cc12)c1ccccc1` (stereo partly drawn) [Example 90, 8-chloro-4-((3-cyano-1-phenyl-propyl)amino)-6-(((S)-(1-cyclopropyl-1H-1,2,3-triazol-4-yl)(6-(oxetan-3-yl)-4,5,6,7-tetrahydrothieno[2,3-c]pyridin-3-yl)methyl)amino)quinoline-3-carbonitrile], for which the EC50 in the assay with TNFα (setting [1]) is 18 nM. Moreover, the half-maximal inhibitory concentration (IC50) at Human Cot (setting [2]) was determined as 1 nM.

Regarding `CCc1ncccc1[C@H](Nc1cc(C#N)c2ncc(C#N)c(NCC(C)(C)C)c2c1)c1cn(C2(C(F)(F)F)CC2)nn1` [Example 602, (S)-6-(((2-ethylpyridin-3-yl)(1-(1-(trifluoro-methyl)cyclopropyl)-1H-1,2,3-triazol-4-yl)methyl)amino)-4-(neopentylamino)-quinoline-3,8-dicarbonitrile], in the assay on TNFα (setting [1]), the EC50 was 69 nM. This molecule also gave a half-inhibitory concentration (IC50) against Human Cot (setting [2]) of 3 nM.

As for `CC(C)(C)CNc1c(C#N)cnc2c(Cl)cc(N[C@H](c3cn(C(CF)CF)nn3)c3cccc4ncccc34)cc12` [Example 804, (S)-8-chloro-6-(((1-(1,3-difluoropropan-2-yl)-1H-1,2,3-triazol-4-yl)(quinolin-5-yl)methyl)amino)-4-(neopentylamino)quinoline-3-carbonitrile], in the assay on TNFα (setting [3]), the EC50 was 137 nM. Besides, at Human Cot (setting [4]), the IC50 turned out to be 9 nM.

On to `Cc1nc(F)ccc1[C@H](Nc1cc(Cl)c2ncc(C#N)c(NCC(C)(C)C)c2c1)c1cn(C2(C(F)(F)F)COC2)nn1` [Example 548, (S)-8-chloro-6-(((6-fluoro-2-methylpyridin-3-yl)(1-(3-(trifluoromethyl)oxetan-3-yl)-1H-1,2,3-triazol-4-yl)methyl)amino)-4-(neopentylamino)quinoline-3-carbonitrile], for which the EC50 with TNFα (setting [1]) amounted to 124 nM. This molecule yielded an IC50 against Human Cot (setting [2]) of 8 nM.

On to `N#Cc1cnc2c(Cl)cc(N[C@@H](c3ccc4c(c3)CNC4)c3c[nH]nn3)cc2c1Nc1ccc(F)c(Cl)c1` [Example 55, (S)-8-chloro-4-((3-chloro-4-fluorophenyl)amino)-6-((isoindolin-5-yl(1H-1,2,3-triazol-4-yl)methyl)amino)quinoline-3-carbonitrile], for which the EC50 in the assay on TNFα (setting [1]) was determined as 10800 nM. The molecule further displayed an IC50 against Human Cot (setting [2]) of 58 nM.

Turning to `CC(C)(C)CNc1c(C#N)cnc2c(Cl)cc(N[C@H](c3cn(C4(C(F)(F)F)CC4)nn3)c3cccc4ncccc34)cc12` [Example 461, (S)-8-chloro-4-(neopentylamino)-6-((quinolin-5-yl(1-(1-(trifluoromethyl)-cyclopropyl)-1H-1,2,3-triazol-4-yl)methyl)amino)quinoline-3-carbonitrile], the concentration for a half-maximal effect (EC50) in the assay on TNFα (setting [1]) was determined as 154 nM. The same molecule gave an IC50 at Human Cot (setting [2]) of 17 nM.

Take `Cc1nc(F)ccc1[C@H](Nc1cc(Cl)c2ncc(C#N)c(N[C@H]3CCOC3(C)C)c2c1)c1cn(C2(C(F)F)CC2)nn1` [Example 516, 8-chloro-6-(((S)-(1-(1-(difluoromethyl)-cyclopropyl)-1H-1,2,3-triazol-4-yl)(6-fluoro-2-methylpyridin-3-yl)methyl)amino)-4-(((S)-2,2-dimethyltetrahydrofuran-3-yl)amino)quinoline-3-carbonitrile]: the half-maximal effective concentration (EC50) in the assay with TNFα (setting [1]) stood at 34 nM. This molecule also displayed a half-inhibitory concentration (IC50) on Human Cot (setting [2]) of 2 nM.

As to `CC(C)(C)CNc1c(C#N)cnc2c(Cl)cc(N[C@H](c3cn(C4(C(N)=O)CCC4)nn3)c3cccc4cnccc34)cc12` [Example 562, (S)-1-(4-(((8-chloro-3-cyano-4-(neopentyl-amino)quinolin-6-yl)amino)(isoquinolin-5-yl)methyl)-1H-1,2,3-triazol-1-yl)cyclobutane-1-carboxamide], the 50% effective concentration (EC50) in the assay on TNFα (setting [1]) worked out at 231 nM. This molecule also showed a half-inhibitory concentration (IC50) against Human Cot (setting [2]) of 2 nM.

With `[2H][C@@](Nc1cc(Cl)c2ncc(C#N)c(N[C@H](CC)c3ccccc3)c2c1)(c1cn(C2CC2)nn1)c1cccnc1F` [Example 105, 8-chloro-6-(((S)-(1-cyclopropyl-1H-1,2,3-triazol-4-yl)(2-fluoropyridin-3-yl)methyl-d)amino)-4-(((R)-1-phenylpropyl)amino)quinoline-3-carbonitrile], in the assay with TNFα (setting [1]), the concentration for a half-maximal effect (EC50) came to 144 nM. On Human Cot (setting [2]), this molecule registered a 50% inhibitory concentration (IC50) of 3 nM.

Regarding `CCN1CCC(n2cc([C@@H](Nc3cc(Cl)c4ncc(C#N)c(Nc5ccc(F)c(Cl)c5)c4c3)c3sccc3Cl)nn2)CC1` [Example 389, (R)-8-chloro-4-((3-chloro-4-fluoro-phenyl)amino)-6-(((3-chlorothiophen-2-yl)(1-(1-ethylpiperidin-4-yl)-1H-1,2,3-triazol-4-yl)methyl)amino)-quinoline-3-carbonitrile], the EC50 in the assay with TNFα (setting [1]) was determined as 328 nM. This molecule gave an IC50 against Human Cot (setting [2]) of 11 nM.

Take `CC(C)(C)CNc1c(C#N)cnc2c(C#N)cc(N[C@@H](c3ccc4cccnc4c3)c3cn(C4(C(F)F)CC4)nn3)cc12` [Example 818, (S)-6-(((1-(1-(difluoromethyl)-cyclopropyl)-1H-1,2,3-triazol-4-yl)(quinolin-7-yl)methyl)amino)-4-(neopentylamino)quinoline-3,8-dicarbonitrile]: the concentration for a half-maximal effect (EC50) in the assay with TNFα (setting [3]) turned out to be 176 nM. This molecule also returned an IC50 on Human Cot (setting [4]) of 6 nM.

Consider `Cc1nc(F)ccc1[C@H](Nc1cc(C#N)c2ncc(C#N)c(NCC(C)(C)C)c2c1)c1cn(C2(C(C)(C)C)CC2)nn1` [Example 860, (S)-6-(((1-(1-(tert-butyl)cyclopropyl)-1H-1,2,3-triazol-4-yl)(6-fluoro-2-methylpyridin-3-yl)methyl)amino)-4-(neopentylamino)quinoline-3,8-dicarbonitrile], for which the concentration giving a half-maximal response (EC50) in the assay on TNFα (setting [3]) worked out at 31 nM. Also, half-maximal inhibition on Human Cot (setting [4]) (IC50) required 3 nM.

With `CC(C)(C)CNc1c(C#N)cnc2c(Cl)cc(N[C@H](c3cn(C4(C(F)F)CC4)nn3)c3cccc4c(=O)n(CC(F)F)ccc34)cc12` [Example 743, (S)-8-chloro-6-(((2-(2,2-difluoroethyl)-1-oxo-1,2-dihydroisoquinolin-5-yl)(1-(1-(difluoromethyl)cyclopropyl)-1H-1,2,3-triazol-4-yl)methyl)amino)-4-(neopentylamino)quinoline-3-carbonitrile], the half-maximal effective concentration (EC50) in the assay on TNFα (setting [1]) was 116 nM. In addition, the IC50 against Human Cot (setting [2]) came out at 5 nM.

As to `Cc1nc(F)ccc1[C@H](Nc1cc(Cl)c2ncc(C#N)c(NCC(C)(C)C)c2c1)c1cn(C2(C3CC3)CC2)nn1` [Example 547], the EC50 in the assay on TNFα (read-out: EC50 TNF, LPS-stimulated human monocytes, TNFα) was found to be 33 nM. Further, the half-maximal inhibitory concentration (IC50) on Human Cot (read-out: IC50 HTRF, Cot HTRF (TR-FRET) biochemical assay) amounted to 2 nM.

As to `CC(C)(C)CNc1c(C#N)cnc2c(Cl)cc(NC(c3cn(C4CC4)nn3)c3csc4c3CCN(C3COC3)C4)cc12` (stereo not drawn) [Example 91, 8-chloro-6-(((1-cyclopropyl-1H-1,2,3-triazol-4-yl)(6-(oxetan-3-yl)-4,5,6,7-tetrahydro-thieno[2,3-c]pyridin-3-yl)-methyl)amino)-4-(neopentylamino)-quinoline-3-carbonitrile], the EC50 in the assay on TNFα (setting [1]) is 52 nM. Inhibition against Human Cot (setting [2]) was half-maximal at 2 nM (IC50).

As to `COc1ccc2c([C@H](Nc3cc(Cl)c4ncc(C#N)c(NCC(C)(C)C)c4c3)c3cn(C4(C(F)(F)F)CC4)nn3)cccc2n1` [Example 930, (S)-8-chloro-6-(((2-methoxyquinolin-5-yl)(1-(1-(trifluoromethyl)cyclopropyl)-1H-1,2,3-triazol-4-yl)methyl)amino)-4-(neopentylamino)quinoline-3-carbonitrile], the EC50 in the assay on TNFα (setting [3]) was 504 nM. Moreover, the concentration for half-maximal inhibition (IC50) on Human Cot (setting [4]) was 33 nM.

On to `CC(C)(C)CNc1c(C#N)cnc2c(Cl)cc(N[C@H](c3cn(C45CC(C4)C5)nn3)c3ccc(F)c4ncccc34)cc12` [Example 920, (S)-6-(((1-(bicyclo[1.1.1]pentan-1-yl)-1H-1,2,3-triazol-4-yl)(8-fluoroquinolin-5-yl)methyl)amino)-8-chloro-4-(neopentylamino)quinoline-3-carbonitrile], for which the EC50 with TNFα (setting [3]) is 28 nM. This molecule gave a half-inhibitory concentration (IC50) against Human Cot (setting [4]) of 3 nM.
